Experimental data: article PMC13198932, “Pyrazolone-based ERO1 inhibitors in ERO1-driven triple-negative breast cancer and SEPN1-related myopathy: Structure–activity relationship and therapeutic potential” (Pharmacological research, 2025)
Values joined by “and” are separate entries in the source; they are usually repeats but may differ in a detail not shown here. Identical values can stand only once. “Also recorded” adds a separate entry of the source. Like-named read-outs stand apart in the source and are kept apart here.

Experiments:
MDAMB231 cells = assay: MTS assay of metabolic activity in MDAMB231 cells; assay type: cell-based, human; details: MDAMB231, dose-response, 24 h, 1 % FBS
Procedure: Six thousand cells (MDAMB231 and E0771) per well were seeded in 96-well plates and cultured in medium containing 1 % FBS. Cells were treated with varying concentrations of compounds and, after 24 h, incubated with MTS [3-(4,5-dimethylthiazol-2-yl)-5-(3-carboxymethoxyphenyl)-2-(4 sulfophenyl)2Htetrazolium]and PMS (phenazine methosulfate), following the instructions of the CellTiter 96® Aqueous Non-Radioactive Cell Proliferation Assay (Promega). Measurements were performed using a TECAN Infinite M200 plate reader with […] at 490 nm.

[1] = target: T1, ERO1 in MDA-MB-231 breast cancer cells (Homo sapiens, UniProt Q96HE7); assay: ERO1 redox state by non-reducing immunoblot in MDA-MB-231 cells; assay type: cell-based
T1 construct: Non-reducing Immunoblot of endogenous ERO1 in lysates of vehicle-treated MDAMB231; endogenous in cells; host or cells: MDA-MB-231
T1 sequence (Q96HE7 24-468): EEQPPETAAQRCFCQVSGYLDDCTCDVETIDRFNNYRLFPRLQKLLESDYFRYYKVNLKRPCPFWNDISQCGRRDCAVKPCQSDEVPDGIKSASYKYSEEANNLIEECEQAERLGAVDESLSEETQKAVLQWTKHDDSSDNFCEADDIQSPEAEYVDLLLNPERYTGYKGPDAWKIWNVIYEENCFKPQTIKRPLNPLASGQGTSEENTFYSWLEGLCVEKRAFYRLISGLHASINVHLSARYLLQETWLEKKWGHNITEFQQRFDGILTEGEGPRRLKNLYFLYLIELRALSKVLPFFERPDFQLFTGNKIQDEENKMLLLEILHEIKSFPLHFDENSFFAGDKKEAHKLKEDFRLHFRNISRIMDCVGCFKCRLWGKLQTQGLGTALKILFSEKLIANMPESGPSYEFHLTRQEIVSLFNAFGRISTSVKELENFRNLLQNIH
Procedure: MDAMB231 and E0771 cells were maintained in Dulbecco’s Modified Eagle’s Medium supplemented with 1 % fetal bovine serum and seeded at 70 % confluency in six-well plates one day prior to the experiment. Cells were treated with DTT (10 mM) and/or ERO1A inhibitors for 1–5 h. At the time of collection, phosphate-buffered saline containing 10 mM NEM was added, and cells were incubated on ice for 10 min in lysis buffer (50 mM Tris-HCl, pH 7.4; 150 mM NaCl; 1 % Triton X-100; 0.1 % SDS; 1 % sodium deoxycholate; protease inhibitors; and 10 mM NEM). Protein concentrations were determined using the BCA assay, and equal amounts of protein were separated by non-reducing SDS-PAGE followed by immunoblotting with a polyclonal antibody against ERO1A [33].

[2] = test system: WT and SEPN1 KD C2C12 cells; assay: Super resolution microscopy (SIM) of ER volume and mitochondrial network; assay type: cell-based; details: for mitochondrial network (total branch length): SEPN1 KD cells; for ER volume: WT and SEPN1 KD cells
Text: Structured illumination microscopy (SIM) was done on a Nikon SIM system with a 100 × 1.49 objective. Briefly, randomly selected cells were imaged at laser excitation of 405 nm (nuclei), 561 nm (ER), and 640 nm (mitochondria) with a 3D-SIM acquisition protocol. SIM images were quantified with ImageJ. After background normalization, the ER signals was segmentated to calculate the volume of the ER expressed as fraction of the cell. The segmentated mitochondrial signal was followed by the skeletonize function of ImageJ to perform mitochondria network analysis. We then applied the Analyze Skeleton 2D/3D plugin of ImageJ to measure each cell total branch length, expressed as μm.

recombinant ERO1A = target: T2, recombinant ERO1A (Mus musculus, UniProt Q8R180); assay: AUR-based kinetic assay of ERO1A activity (recombinant ERO1A and PDIA1, HRP, Amplex Ultra Red); assay type: biochemical; details: for IC50: Table 1 in Fig. 3
T2 construct: GST-SMT3-mouse ERO1A (residues 43–464); GST-SMT3 (GST-SUMO) (N, cleaved yes); made in house; host or cells: E. coli Rosetta DE3 (Novagen)
T2 sequence (Q8R180 43-464): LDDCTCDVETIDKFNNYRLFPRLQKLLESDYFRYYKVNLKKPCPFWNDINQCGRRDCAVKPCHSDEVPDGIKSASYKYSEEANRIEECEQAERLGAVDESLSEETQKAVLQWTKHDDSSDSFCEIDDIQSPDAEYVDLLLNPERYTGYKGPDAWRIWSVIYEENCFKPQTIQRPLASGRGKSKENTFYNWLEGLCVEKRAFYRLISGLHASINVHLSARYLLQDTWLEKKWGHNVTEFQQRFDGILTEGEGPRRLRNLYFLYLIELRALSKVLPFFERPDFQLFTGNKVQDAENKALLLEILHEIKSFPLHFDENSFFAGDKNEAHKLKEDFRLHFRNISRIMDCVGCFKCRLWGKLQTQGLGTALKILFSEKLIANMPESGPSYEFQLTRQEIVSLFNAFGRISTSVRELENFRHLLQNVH
Text: A GST-SMT3-mouse ERO1A (residues 43–464) and His-tagged PDIA1 [30] were expressed in the Rosetta DE3 bacteria (Novagen) and purified as described in [29, 31]. The GST-SMT3 and His tags were cleaved using Ulp protease (Z03691, GenScript) and thrombin protease (T6884, Merck), respectively. Successful tag removal was confirmed by a shift to a lower molecular weight for ERO1A on SDS-PAGE and by the absence of signal in anti-His immunoblotting for PDIA1.
The kinetic assay of ERO1A activity is based on a reaction involving recombinant ERO1A and PDIA1 proteins, horseradish peroxidase (Worthington), and 5 μM Amplex Ultra Red, as detailed in [29]. The effect of ERO1A inhibitors was evaluated by preincubating the compounds with ERO1A and measuring the inhibition of the linear reaction rate, and the corresponding IC50 values were determined using Prism 10 (GraphPad).
EN460 and 16 newly synthesized derivatives (I24–I40) (except for I31, which was not evaluated due to potential toxicity associated with its CN group) were evaluated for their ability to inhibit ERO1-dependent AUR fluorescence using a kinetic assay with recombinant ERO1 and PDIA1, as previously described (Figs. 3A and 3B). Raw kinetic data showing AUR fluorescence over time in reactions containing reduced ERO1, PDIA1 and EN460-derivatives are presented in Fig. Sup.1 A and Sup. 1B. Reaction rates, measured in presence or absence of varying concentrations of each compound, were used to calculate IC50 values, defined as the concentration required to inhibit 50 % of ERO1 enzymatic activity (Figs. 3C, 3D and Fig. Sup1C).

[3] = compounds dissolved in DMSO, preincubated with ERO1A, NA stands for not active, read-out: IC50
[4] = logarithm of IC50 in μM, compounds dissolved in DMSO, read-out: Log IC50 (confidence intervals) (converted)

Compound	metabolic activity (MTS assay) (MDAMB231 cells)	ERO1 reduction compared with EN460 ([1]; MDAMB231, Fig. 4D)	mitochondrial network (total branch length) [2]	ER volume [2]	IC50 / potency relative to EN460 (recombinant ERO1A; compared with EN460)	ERO1 inhibitory activity (in words) (recombinant ERO1A; compounds dissolved in DMSO)	IC50 (recombinant ERO1A; [3])	IC50 (recombinant ERO1A; [4])	ERO1 reduction (redox state) ([1]; MDA-MB-231, 20 μM, Fig. Sup. 2A)	ERO1 reduction ([1]; MDA-MB-231, 20 μM, dose-response 1–20 μM, Fig. 4B)	concentration achieving complete ERO1 reduction ([1]; MDA-MB-231, dose-response 5–20 μM, Fig. Sup. 2B)
O=C1/C(=C/c2ccc(-c3ccccc3)o2)C(C(F)(F)F)=NN1c1ccccc1F [I29]	significantly reduced metabolic activity; also recorded: higher potency than EN460	reduced more efficiently ERO1	selectively improved the mitochondrial network	did not change substantially	more than two times lower; also recorded: twofold lower; also recorded: approximately twofold higher activity; also recorded: twofold increase in potency	highest potency	2.6 µM and ~2.6 µM	2.63 µM			
O=C(O)c1cc(N2N=C(C(F)(F)F)/C(=C\c3ccc(-c4ccccc4)o3)C2=O)ccc1Cl [EN460, reference compound]	significantly reduced metabolic activity		selectively improved the mitochondrial network	did not change substantially			6 µM	5.89 µM	efficiently reduced ERO1	near-complete reduction of ERO1	15 µM
